Several values for one entry are separate records, joined by “and”; a condition that tells them apart may be missing. Equal values may be shown once. ± gives the expanded uncertainty stated by the source.
Test: refractive index (Na D-line) (dimensionless); wn = mass fraction of the nth substance listed
Settings: 298.15 K; 84.5 kPa; Liquid; Standard Abbe refractometry; w1 = 0.02

Compound	refractive index
CCCCn1cc[n+](C)c1.F[B-](F)(F)F [1-butyl-3-methylimidazolium tetrafluoroborate] + O	1.3339 ± 0.00055 and 1.33393 ± 0.00055 and 1.33391 ± 0.00055
OC[C@H]1O[C@@](CO)(O[C@H]2O[C@H](CO)[C@@H](O)[C@H](O)[C@H]2O)[C@@H](O)[C@@H]1O [D-sucrose] + O	1.33518 ± 0.00055

Continued, values first:

refractive index	Compound
1.33525 ± 0.00055	O=C(CO)[C@@H](O)[C@H](O)[C@H](O)CO [D-fructose] + O
1.33529 ± 0.00055	O=C[C@H](O)[C@@H](O)[C@H](O)[C@H](O)CO [D-glucose] + O
1.33523 ± 0.00055	O=C[C@H](O)[C@@H](O)[C@@H](O)CO [L-arabinose] + O
